EC50 data for twelve compounds are collected here from patent publication US10206902B2, “Mono- or di-substituted indoles as dengue viral replication inhibitors” (priority 2014, dated 2019).

One assay relates to DENV-2 16681 strain. The experiment in a line: DENV-2 antiviral assay (eGFP-labelled virus in Vero cells). The note with it: DENV-2 16681 eGFP, MOI 0.5, 3 days. It counts as cell-based, Dengue virus. As for the experimental part: The antiviral activity of all the compounds of the invention was tested against DENV-2 16681 strain which was labeled with enhanced green fluorescent protein (eGPF). The culture medium consists of minimal essential medium supplemented with 2% of heat-inactivated fetal calf serum, 0.04% gentamycin (50 mg/mL) and 2 mM of L-glutamine. Vero cells, obtained from ECACC, were suspended in culture medium and 25 μL was added to 384-well plates (2500 cells/well), which already contain the antiviral compounds. Typically, these plates contain a 4-fold serial dilution of 9 dilution steps of the test compound at 200 times the final concentration in 100% DMSO (200 nL). In addition, each compound concentration is tested in quadruplicate (final concentration range: 25 μM-0.00038 μM). Finally, each plate contains wells which are assigned as virus controls (containing cells and virus in the absence of compound), cell controls (containing cells in the absence of virus and compound) and medium controls (containing medium in the absence of cells, virus and compounds). To the wells assigned as medium control, 25 μL of culture medium was added instead of Vero cells. Once the cells were added to the plates, the plates were incubated for 30 minutes at room temperature to allow the cells to distribute evenly within the wells. Next, the plates were incubated in a fully humidified incubator (37° C., 5% CO2) until the next day. Then, DENV-2 strain 16681, labeled with eGFP, was added at a multiplicity of infection (MOI) of 0.5. Therefore, 15 μL of virus suspension was added to all the wells containing test compound and to the wells assigned as virus control. In parallel, 15 μL of culture medium was added to the medium and cell controls. Next, the plates were incubated for 3 days in a fully humidified incubator (37° C., 5% CO2). At the day of the read out, the eGFP fluorescence was measured using an automated fluorescence microscope at 488 nm (blue laser). Using an in-house LIMS system, inhibition dose response curves for each compound were calculated and the half maximal effective concentration (EC50) was determined. Therefore, the percent inhibition (I) for every test concentration is calculated using the following formula: I=100*(ST−SCC)/(SVC−SCC); ST, SCC and SVC are the amount of eGFP signal in the test compound, cell control and virus control wells, respectively. The EC50 represents the concentration of a compound at which the virus replication is inhibited with 50%, as measured by a 50% reduction of the eGFP fluorescent intensity compared to the virus control. The EC50 is calculated using linear interpolation (Table 1).

The subject of the next assay is DENV-2 strain 16681. The experiment in a line: Tetravalent RT-qPCR assay Protocol A, serotype 2. It counts as cell-based. The note with it: Dengue virus, DENV2, 72 h, RT-qPCR serotype 2 16681, Vero cells, day 3. As for the experimental part:
The antiviral activity of the compounds of the invention was tested against DENV-1 strain TC974#666 (NCPV), DENV-2 strain 16681, DENV-3 strain H87 (NCPV) and DENV-4 strains H241 (NCPV) and EDEN (SG/06K2270DK1/2005; GenBank accession number QG398256) in a RT-qPCR assay. Therefore, Vero cells were infected with either DENV-1, or -2, or -3, or -4 in the presence or absence of test compounds. At day 3 post-infection, the cells were lysed and cell lysates were used to prepare cDNA of both a viral target (the 3′UTR of DENV; table 2) and a cellular reference gene (β-actin, table 2). Subsequently, a duplex real time PCR was performed on a Lightcycler480 instrument. The generated Cp value is inversely proportional to the amount of RNA expression of these targets. Inhibition of DENV replication by a test compound result in a shift of Cp's for the 3′UTR gene. On the other hand, if a test compound is toxic to the cells, a similar effect on β-actin expression will be observed. The comparative ΔΔCp method is used to calculate EC50, which is based on the relative gene expression of the target gene (3′UTR) normalized with the cellular housekeeping gene (β-actin). In addition, CC50 values were determined based on the Cp values acquired for the housekeeping gene β-actin.
The culture medium consisted of minimal essential medium supplemented with 2% of heat-inactivated fetal calf serum, 0.04% gentamycin (50 mg/mL) and 2 mM of L-glutamine. Vero cells, obtained from ECACC, were suspended in culture medium and 75 μL/well was added in 96-well plates (10000 cells/well), which already contain the antiviral compounds. Typically, these plates contain a 4-fold serial dilution of 9 dilution steps of the test compound at 200 times the final concentration in 100% DMSO (500 nL; final concentration range: 25 μM-0.00038 μM). In addition, each plate contains wells which are assigned as virus controls (containing cells and virus in the absence of compound) and cell controls (containing cells in the absence of virus and compound). Once the cells were added in the plates, the plates were incubated in a fully humidified incubator (37° C., 5% CO2) until the next day. Then, DENV-1 strain TC974#666, DENV-2 strain 16681, DENV-3 strain H87 or DENV-4 strains H241 or EDEN were added. […] In parallel, 25 μL of culture medium was added to the cell controls. Next, the plates were incubated for 3 days in a fully humidified incubator (37° C., 5% CO2). After 3 days, the supernatant was removed from the wells and the cells were washed twice with ice-cold PBS (˜100 μL). The cell pellets within the 96-well plates were stored at −80° C. for at least 1 day. Next, RNA was extracted using the Cells-to-CT™ lysis kit, according to the manufacture's guideline (Applied Biosystems). The cell lysates can be stored at −80° C. or immediately used in the reverse transcription step. In preparation of the reverse transcription step, mix A (table 3A) was prepared and 7.57 μL/well was dispensed in a 96-well plate. After addition of 5 μL of the cell lysates, a five minute denaturation step at 75° C. was performed (table 3B). Afterwards, 7.43 μL of mix B was added (table 3C) and the reverse transcription step was initiated (table 3D) to generate cDNA.
Finally, a RT-qPCR mix was prepared, mix C (table 4A), dispensed in 96-well LightCycler qPCR plates to which 3 μL of cDNA was added and the qPCR was performed according to the conditions in table 4B on a LightCycler 480. Using the LightCycler software and an in-house LIMS system, dose response curves for each compound were calculated and the half maximal effective concentration (EC50) and the half maximal cytotoxic concentration (CO50) were determined (Tables 6-9).
In general terms: Real-time PCR tracks product formation cycle by cycle.

With `COc1cc(NC(C(=O)c2c[nH]c3cc(F)ccc23)c2ccc(F)cc2OC)cc(OCCO)c1` (single isomer, unassigned) [Compound 1A, 1-(6-fluoro-1H-indol-3-yl)-2-(4-fluoro-2-methoxyphenyl)-2-((3-(2-hydroxyethoxy)-5-methoxyphenyl)amino)ethanone], the concentration for a half-maximal effect (EC50) (usually the midpoint of the concentration-response curve) was found to be 3.8 nM in the assay with DENV-2 16681 strain and 3.2 nM in the assay on DENV-2 strain 16681.
Regarding `COc1cc(NC(C(=O)c2c[nH]c3c(C)c(F)ccc23)c2ccc(F)cc2OC)cc(OCCO)c1` (single isomer, unassigned) [Compound 2B, 2-(4-fluoro-2-methoxyphenyl)-1-(6-fluoro-7-methyl-1H-indol-3-yl)-2-((3-(2-hydroxyethoxy)-5-methoxyphenyl)amino)ethanone], the concentration for a half-maximal effect (EC50) turned out to be 2.2 nM with DENV-2 16681 strain and 2.3 nM in the assay on DENV-2 strain 16681.
In the case of `COc1cc(NC(C(=O)c2c[nH]c3c(C)c(Cl)ccc23)c2ccc(F)cc2OC)cc(OCCO)c1` (single isomer, unassigned) [Compound 3A, 1-(6-chloro-7-methyl-1H-indol-3-yl)-2-(4-fluoro-2-methoxyphenyl)-2-((3-(2-hydroxyethoxy)-5-methoxyphenyl)amino)ethanone], the concentration giving a half-maximal response (EC50) in the assay with DENV-2 16681 strain is 0.77 nM; with DENV-2 strain 16681, 0.79 nM.
In the case of `COc1cc(NC(C(=O)c2c[nH]c3cc(Cl)ccc23)c2ccc(F)cc2OC)cc(OCCO)c1` (single isomer, unassigned) [Compound 4A, 1-(6-chloro-1H-indol-3-yl)-2-(4-fluoro-2-methoxyphenyl)-2-((3-(2-hydroxyethoxy)-5-methoxyphenyl)amino)ethanone], the EC50 in the assay on DENV-2 16681 strain and with DENV-2 strain 16681 was 1.6 nM each time.
For `COc1cc(NC(C(=O)c2c[nH]c3c(F)c(F)ccc23)c2ccc(F)cc2OC)cc(OCCO)c1` (single isomer, unassigned) [Compound 5B, 1-(6,7-difluoro-1H-indol-3-yl)-2-(4-fluoro-2-methoxyphenyl)-2-((3-(2-hydroxyethoxy)-5-methoxyphenyl)amino)ethanone], the 50% effective concentration (EC50) with DENV-2 16681 strain is 2.5 nM; with DENV-2 strain 16681, 3.6 nM.
Consider `COc1cc(NC(C(=O)c2c[nH]c3cc(OC)c(C)cc23)c2ccc(F)cc2OC)cc(OCCO)c1` (single isomer, unassigned) [Compound 6A, 2-(4-fluoro-2-methoxyphenyl)-2-((3-(2-hydroxyethoxy)-5-methoxyphenyl)amino)-1-(6-methoxy-5-methyl-1H-indol-3-yl)ethanone], for which the concentration giving a half-maximal response (EC50) turned out to be 2.7 nM in the assay with DENV-2 16681 strain and 1.7 nM in the assay with DENV-2 strain 16681.
Take `COc1cc(NC(C(=O)c2c[nH]c3cc(OC)c(F)cc23)c2ccc(F)cc2OC)cc(OCCO)c1` (single isomer, unassigned) [Compound 7A, 2-(4-fluoro-2-methoxyphenyl)-1-(5-fluoro-6-methoxy-1H-indol-3-yl)-2-((3-(2-hydroxyethoxy)-5-methoxyphenyl)amino)ethanone]: the concentration giving a half-maximal response (EC50) came to 4.6 nM in the assay on DENV-2 16681 strain and 3.4 nM in the assay on DENV-2 strain 16681.
For the compound `COc1cc(NC(C(=O)c2c[nH]c3c(Cl)c(OC)ccc23)c2ccc(F)cc2OC)cc(OCCO)c1` (single isomer, unassigned) [Compound 8A, 1-(7-chloro-6-methoxy-1H-indol-3-yl)-2-(4-fluoro-2-methoxyphenyl)-2-((3-(2-hydroxyethoxy)-5-methoxyphenyl)amino)ethanone], the EC50 in the assay with DENV-2 16681 strain worked out at 1 nM; with DENV-2 strain 16681, 0.9 nM.
With `COc1cc(NC(C(=O)c2c[nH]c3c(C)cc(F)cc23)c2ccc(F)cc2OC)cc(OCCO)c1` (single isomer, unassigned) [Compound 9B, 2-(4-fluoro-2-methoxyphenyl)-1-(5-fluoro-7-methyl-1H-indol-3-yl)-2-((3-(2-hydroxyethoxy)-5-methoxyphenyl)amino)ethanone], the 50% effective concentration (EC50) with DENV-2 16681 strain turned out to be 3.4 nM; with DENV-2 strain 16681 it was 3.2 nM.
Regarding `COc1cc(NC(C(=O)c2c[nH]c3cc(F)c(F)cc23)c2ccc(F)cc2OC)cc(OCCO)c1` (single isomer, unassigned) [Compound 10B, 1-(5,6-difluoro-1H-indol-3-yl)-2-(4-fluoro-2-methoxy-phenyl)-2-((3-(2-hydroxyethoxy)-5-methoxyphenyl)amino)ethanone], the results for the half-maximal effective concentration (EC50) with DENV-2 16681 strain and with DENV-2 strain 16681 were 2.7 nM and 3.2 nM, respectively.
As to `COc1cc(NC(C(=O)c2c[nH]c3c(C)c(OC)ccc23)c2ccc(F)cc2OC)cc(OCCO)c1` (single isomer, unassigned) [Compound 11A, 2-(4-fluoro-2-methoxyphenyl)-2-((3-(2-hydroxyethoxy)-5-methoxyphenyl)amino)-1-(6-methoxy-7-methyl-1H-indol-3-yl)ethanone], the concentration for a half-maximal effect (EC50) was determined as 0.81 nM with DENV-2 16681 strain and 0.84 nM in the assay with DENV-2 strain 16681.
For `COc1cc(NC(C(=O)c2c[nH]c3c(F)cc(C)cc23)c2ccc(F)cc2OC)cc(OCCO)c1` (single isomer, unassigned) [Compound 12B, 2-(4-fluoro-2-methoxyphenyl)-1-(7-fluoro-5-methyl-1H-indol-3-yl)-2-((3-(2-hydroxyethoxy)-5-methoxyphenyl)amino)ethanone], the values for the EC50 with DENV-2 16681 strain and with DENV-2 strain 16681 were 5.1 nM and 8.1 nM, respectively.
